The target of test [1] is T1, sCD4 (Homo sapiens, UniProt P01730).
T1 construct: Soluble CD4 (sCD4) was produced by Progenics, Tarrytown, N.Y; purchased Progenics (provided by the Division of AIDS, NIAID, NIH)
The format is binding. The conditions noted are these: SPR.

The target in test [2] is sCD4 ligated gp120 in the context of membrane bound envelope. As to conditions: Hoffman et al 2000; read-out: affinity; cited from earlier work.
Test [3] addresses A32-gp120 (89.6 gp120) (Human immunodeficiency virus type 1 group M subtype B, UniProt Q73372). The conditions noted are these: DP178 pre-incubated with peptide. From the text:
FIGS. 31A–31F. […] Data are representative of 3 separate experiments performed. Data presented for C4-V389.6P and C4-V3MN are taken from two separate experiments. (FIG. 31F) Schematic.
The gp120 C4 region is centrally located within the CCR5 binding site in the β20–β21 strands of the gp120 bridging sheet (Wyatt et al, J. Virol. 69:5723–5733 (1995)).

The subject of test [4] is sCD4-gp140 (HIV 89.6 gp140). The experiment in a line: SPR binding of HR-2 peptides to sCD4-gp140 complex. The conditions noted are these: SPR. The protocol:
(§1) SPR biosensor measurements were determined on a BIACORE 3000 (BIACORE Inc., Uppsala, Sweden) instrument. […] Binding of proteins and peptides was monitored in real-time at 25° C. and with a continuous flow of PBS, pH 7.4 at […]. Analyte (proteins and peptides) were removed and the sensor surfaces were regenerated following each cycle of binding by single or duplicate […] of regeneration solution (10 mM glycine-HCl, pH 2.5 or 10 mM NaOH).
(§2) All analyses were performed using the non-linear fit method of O'Shannessy et al. (O'Shannessy et al, Anal. Biochem. 205:132–136 (1992)) and the BIAevaluation 3.0 software (BIACORE Inc). Rate and equilibrium constants were derived from curve fitting to the Langmuir equation for a simple bimolecular interaction (A+B=AB).
(§3) A blank chip served as an in-line reference surface for subtraction of non-specific binding and bulk responses.
(§4) Surface Plasmon Resonance Biosensor Measurements. SPR biosensor measurements were determined on a BIACORE 3000 (BIACORE Inc., Uppsala, Sweden) instrument. […] A blank in-line reference surface (activated and de-activated for amine coupling) was used to subtract non-specific or bulk responses. Binding of proteins and peptides (biotinylated or free DP178, T649Q26L, DP178-scrambled) was monitored in real-time at 25° C. with a continuous flow of PBS (150 mM NaCl, 0.005% surfactant p20), pH 7.4 at 10–30 μl/min. Analyte (proteins and peptides) were removed and the sensor surfaces were regenerated following each cycle of binding by single or duplicate 5–10 μl pulses of regeneration solution (10 mM glycine-HCl, pH 2.5 or 10 mM NaOH).
(SPR reads the build-up and loss of mass on a sensor chip optically.)

The target in test [5] is sCD4-gp120 (HIV 89.6 gp120) (Human immunodeficiency virus type 1 group M subtype B, UniProt Q73372). The format is binding.
Test [6] addresses T8-gp120 (HIV 89.6 gp120) (Human immunodeficiency virus type 1 group M subtype B, UniProt Q73372). The format is binding. As to conditions: SPR.
Test [7] relates to T8-gp140 (HIV 89.6 gp140). As to conditions: SPR. On the procedure: FIG. 14A. […] FIGS. 14B and 14C. […] After stabilization of gp140 capture, either the 19b (anti-gp120 V3) or 2F5 (anti-gp41) antibodies (300 μg/ml) were injected to assess the relative amounts of gp120 and gp41 on both surfaces. FIGS. 14D–14F.
as §3, §4

The subject of test [8] is HIV-1 induced syncytia formation. The experiment in a line: HIV-1 induced syncytia formation. In kind it is cell-based. As to conditions: 50–200 μg/ml.
Test [9] deals with CD4-gp140 complex (89.6 gp140 oligomers). As to conditions: on CD4-gp140 complex. The protocol:
FIG. 10C. CD4-gp140 complexes (indicated by arrow) were first formed by injecting soluble 89.6 gp140 oligomers over a CD4-immobilized surface. Then the CCR5 N-terminal peptide (D1) was injected to monitor its binding to CD4-gp140 complexes.
FIG. 10D. An overlay of the binding curves of CCR5 N-terminal peptide, D1, binding to 89.6 gp140 oligomers in the presence and absence of CD4. […] To ensure that all gp140 molecules were bound to CD4, cleaved gp140 proteins were captured on a CD4 immobilized sensor surface (RU=530), and soluble 89.6 gp140 proteins were directly immobilized (RU=3300) on an adjacent flow cell of the same sensor chip.
as §1, §2

Test [10] deals with cleaved gp140 oligomers (HIV 89.6) (Human immunodeficiency virus type 1 group M subtype B, UniProt Q73372). The test can be described thus: biochemical. The format is binding.
Test [11] deals with HIV-1 Env 89.6 gp120 (Human immunodeficiency virus type 1 group M subtype B, UniProt Q73372). The experiment in a line: biochemical. The format is binding, HIV-1 89.6.

This is an account of results in patent US7033593B2, “Immunogen comprising an HIV envelope protein, a ligand and H2 peptide” (priority 2000, dated 2006).

Entries after “also recorded” stand apart in the source; their conditions may differ. Read-outs that look alike come from different tables or passages of the source. No end group written: not given here.

Chain of cleaved gp140 oligomers (HIV 89.6) (Q73372 32-681): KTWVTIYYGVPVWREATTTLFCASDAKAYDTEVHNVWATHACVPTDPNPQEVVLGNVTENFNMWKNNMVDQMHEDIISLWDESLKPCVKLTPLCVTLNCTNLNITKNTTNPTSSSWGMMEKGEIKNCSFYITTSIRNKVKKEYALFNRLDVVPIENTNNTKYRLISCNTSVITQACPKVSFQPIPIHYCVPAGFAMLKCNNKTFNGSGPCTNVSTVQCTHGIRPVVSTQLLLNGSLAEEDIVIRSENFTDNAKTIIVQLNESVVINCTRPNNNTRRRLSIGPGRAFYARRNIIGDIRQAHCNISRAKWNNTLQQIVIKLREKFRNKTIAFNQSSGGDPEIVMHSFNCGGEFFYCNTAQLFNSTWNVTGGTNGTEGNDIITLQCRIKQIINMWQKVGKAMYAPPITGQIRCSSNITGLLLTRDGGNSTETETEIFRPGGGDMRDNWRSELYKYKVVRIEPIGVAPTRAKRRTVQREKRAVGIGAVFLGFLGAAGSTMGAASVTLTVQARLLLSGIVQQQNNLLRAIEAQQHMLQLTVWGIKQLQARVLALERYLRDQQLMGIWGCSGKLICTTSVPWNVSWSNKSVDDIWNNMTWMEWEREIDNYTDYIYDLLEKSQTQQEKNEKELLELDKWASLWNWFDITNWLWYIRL
Chain of HIV-1 Env 89.6 gp120 (Q73372 32-508): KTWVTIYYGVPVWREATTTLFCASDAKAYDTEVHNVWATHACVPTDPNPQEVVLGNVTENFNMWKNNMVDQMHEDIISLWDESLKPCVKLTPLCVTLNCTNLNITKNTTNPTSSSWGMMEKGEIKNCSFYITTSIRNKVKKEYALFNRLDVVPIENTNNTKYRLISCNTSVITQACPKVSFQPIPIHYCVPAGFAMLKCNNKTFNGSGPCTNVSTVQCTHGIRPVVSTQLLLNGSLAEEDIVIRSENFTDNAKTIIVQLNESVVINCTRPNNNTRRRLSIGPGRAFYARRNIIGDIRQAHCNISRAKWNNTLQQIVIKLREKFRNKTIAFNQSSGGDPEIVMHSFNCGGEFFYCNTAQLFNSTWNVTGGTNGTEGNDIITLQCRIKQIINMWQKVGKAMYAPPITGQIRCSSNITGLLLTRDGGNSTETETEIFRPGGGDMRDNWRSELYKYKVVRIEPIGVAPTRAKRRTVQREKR
Chain of sCD4-gp120 (HIV 89.6 gp120) (Q73372 32-508): as above
Chain of T8-gp140 (HIV 89.6 gp140) (Q73372 32-508): as above
Chain of T8-gp140 (HIV 89.6 gp140) (Q73372 509-680): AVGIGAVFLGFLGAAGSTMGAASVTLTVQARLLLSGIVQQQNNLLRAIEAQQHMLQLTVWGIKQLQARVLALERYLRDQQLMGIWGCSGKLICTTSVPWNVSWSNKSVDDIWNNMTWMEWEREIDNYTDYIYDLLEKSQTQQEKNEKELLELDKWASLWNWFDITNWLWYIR
Chain of T8-gp120 (HIV 89.6 gp120) (Q73372 32-508): as the sequence (Q73372 32-508) above

As to “89.6 gp120: soluble gp120 envelope protein of HIV 89.6 primary isolate (Clade B)”, the “off-rate (kd)” value in test [1] (immobilized CD4) stood at 0.00011 s⁻¹. For the same substance, the off-rate in test [1] (immobilized sCD4, preliminary studies) is given as 1.1×10^−4 s^1. For the same substance, the “binding to sCD4 (in words)” value in test [1] (listed as HIV 89.6 gp120) is “most stable binding to sCD4”; in test [1] (listed as HIV89.6 gp120) it was “bound sCD4 most avidly”.

In the case of “native CCR5: native CCR5 co-receptor, literature value”, the Kd in [2] is 500 µM.

Regarding “KQIINMWQEVGKAMYACTRPNYNKRKRIHIGPGRAFYTTK [C4-V3MN]”, in [3], the “blocking of DP178 binding (in words)” value is given as “strong blocking”.

Take “WMEWDREINNYTSLIHSLIEESQNQLEKNEQELLEL [T649Q26L]”: the “binding to sCD4-gp140 surface (in words)” value in [4] is on record as “much higher binding; also recorded: marked binding”. Besides, the “binding to sCD4-gp120 (in words)” value in [5] is “specifically induced by sCD4”. The “binding to gp120 on T8 mab surface (in words)” value in test [6] is listed as “neither HR-2 peptide bound”. The “binding to T8-gp140 surface (in words)” value in [7] is listed as “no binding”.

For IKQIINMWQKVGKAMYAPPIS [C4], the “mean % blocking of DP178 binding to 89.6 gp120” value in [3] (n=3) was determined as 27%. In addition, in [8], the “effect on DP178 inhibition of syncytia formation (in words)” value was “can reverse DP178 inhibition”.

Turning to TRPNNNTRERLSIGPGRAFYARR [V3], the “blocking of DP178 binding (in words)” value in test [3] is “no significant blocking”.

In test [9], “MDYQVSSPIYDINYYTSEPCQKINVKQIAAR [CCR5-D1]” came in with a ka of 9000 M⁻¹ s⁻¹ and a kd of 0.00256 s⁻¹. The Kd in [9] (read-out: apparent Kd) amounted to 280 nM. The same substance showed a Kd in test [10] of 1000 nM. Moreover, in test [10] (absence of CD4), the “binding to cleaved gp140 (in words)” value is on record as “Low levels of constitutive binding” and the “kd (off-rate)” value worked out at 0.01 s⁻¹.

Regarding “KQIINMWQEVGKAMYATRPNNNTRERLSIGPGRAFYARR [C4-V389.6]”, in [3], the “blocking of DP178 binding (in words)” value was “strong blocking”.

Turning to “NNLLRAIEAQQHLLQLTVWGIKQLQARILAVERYLKDQ [DP107]”, the “binding to gp120 bound to CD4 or A32 (in words)” value in [11] is recorded as “no binding was observed”.

“89.6 gp140: HIV 89.6 gp140 envelope, about 50:50 cleaved and uncleaved”: the “binding to sCD4 (in words)” value in test [1] is “bound sCD4 well”.
